The record followed here is PubChem BioAssay (NCI).

Test systems include CCRF-CEM leukemia; HL-60(TB) leukemia; HT29 colon; K-562 leukemia; LOX IMVI melanoma; MDA-MB-231 breast; OVCAR-5 ovarian; RPMI-8226 leukemia; SW-620 colon; UO-31 renal.
What all share (experiment): NCI anticancer screen, dose series, 48 h

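Five compound concentrations were applied to cells in 96-well plates for 48 hours; endpoints were derived by simple linear interpolation of the resulting dose-response curve. TGI: total growth inhibition.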 A value given as a limit tells only on which side of the number the result lay.

For the compound `COc1ccc2nc(/C(N)=C\C#N)ccc2c1`, the TGI was greater than 100 µM in the experiment on CCRF-CEM leukemia; 46.5 µM in the experiment with HL-60(TB) leukemia; greater than 100 µM in the experiment on HT29 colon; greater than 100 µM in the experiment on K-562 leukemia; greater than 100 µM in the experiment with LOX IMVI melanoma; greater than 100 µM in the experiment on MDA-MB-231 breast. Also, the TGI in the experiment with OVCAR-5 ovarian, in the experiment on RPMI-8226 leukemia, with SW-620 colon and with UO-31 renal was greater than 100 µM throughout.

Consider `COC(=O)C1C(C(=O)OC)C2(OC(c3ccc(Cl)cc3)=CC2=O)C12OC(c1ccc(Cl)cc1)=CC2=O` (stereo not given), for which the TGI in the experiment on CCRF-CEM leukemia worked out at 8.23 µM; with HL-60(TB) leukemia, 8.29 µM; in the experiment on HT29 colon, 45.2 µM; with K-562 leukemia it was 53.5 µM; in the experiment with LOX IMVI melanoma, 57.4 µM; in the experiment with MDA-MB-231 breast it was 78.6 µM. Besides, the TGI is 95.1 µM in the experiment on OVCAR-5 ovarian, 37.2 µM in the experiment on RPMI-8226 leukemia, greater than 100 µM with SW-620 colon and 33.6 µM in the experiment on UO-31 renal.

For the compound `O=[N+]([O-])c1ccc(NC(=S)N=Nc2c(O)[nH]c3ccc([N+](=O)[O-])cc23)cc1`, the TGI was 60.4 µM in the experiment with CCRF-CEM leukemia; 73.1 µM with HL-60(TB) leukemia; 65.6 µM in the experiment on HT29 colon; greater than 100 µM in the experiment on K-562 leukemia; 49.1 µM in the experiment with LOX IMVI melanoma; 45 µM with MDA-MB-231 breast. Besides, the TGI was 68 µM in the experiment on OVCAR-5 ovarian, greater than 100 µM in the experiment on RPMI-8226 leukemia, greater than 100 µM with SW-620 colon and 45.1 µM in the experiment with UO-31 renal.

Consider `C=C(C)OCOCCOC`, for which the TGI in the experiment with CCRF-CEM leukemia, with HL-60(TB) leukemia, in the experiment with HT29 colon, in the experiment on K-562 leukemia, in the experiment on LOX IMVI melanoma and in the experiment on MDA-MB-231 breast was greater than 100 µM throughout. The TGI in the experiment on OVCAR-5 ovarian, with RPMI-8226 leukemia, with SW-620 colon and with UO-31 renal was greater than 100 µM in each case.

`COc1ccc(/C=c2\s/c(=C3/SC(=S)N(c4ccccc4)C3=O)n(-c3ccccc3)c2=O)cc1`: the TGI in the experiment with CCRF-CEM leukemia was 77.4 µM; in the experiment on HL-60(TB) leukemia it was greater than 100 µM; in the experiment with HT29 colon, greater than 100 µM; in the experiment on K-562 leukemia it was greater than 100 µM; in the experiment with LOX IMVI melanoma, greater than 100 µM; with MDA-MB-231 breast it was greater than 100 µM. The TGI with OVCAR-5 ovarian, with RPMI-8226 leukemia, in the experiment with SW-620 colon and in the experiment with UO-31 renal was greater than 100 µM in each case.

In the case of `C[C@]12CCC(=O)[C@@H](CCC3=CC(=O)C=CC3=O)[C@@H]1CCC2=O`, the TGI is greater than 100 µM with CCRF-CEM leukemia; 39.1 µM in the experiment on HL-60(TB) leukemia; 82.2 µM in the experiment on HT29 colon; greater than 100 µM in the experiment on K-562 leukemia; 39.3 µM with LOX IMVI melanoma; 49.2 µM in the experiment on MDA-MB-231 breast. The TGI with OVCAR-5 ovarian was greater than 75.1 µM; in the experiment with RPMI-8226 leukemia it was greater than 100 µM; in the experiment with SW-620 colon, greater than 58.7 µM; in the experiment with UO-31 renal, 31.1 µM.

Take `O=c1c(Cc2ccc(Cl)cc2)nnc2sc(-c3ccc(-c4ccc(F)c(Cl)c4)o3)nn12`: the TGI with CCRF-CEM leukemia, with HL-60(TB) leukemia, in the experiment on HT29 colon, in the experiment on K-562 leukemia, in the experiment on LOX IMVI melanoma and in the experiment with MDA-MB-231 breast was greater than 100 µM each time. In addition, the TGI in the experiment with OVCAR-5 ovarian, in the experiment with RPMI-8226 leukemia, with SW-620 colon and with UO-31 renal was greater than 100 µM throughout.

Regarding `N#CC1(O)CCCCCCCCCCC1`, the TGI with CCRF-CEM leukemia, with HL-60(TB) leukemia, in the experiment with HT29 colon, in the experiment on K-562 leukemia, in the experiment on LOX IMVI melanoma and in the experiment on MDA-MB-231 breast was greater than 100 µM in each case. The TGI with OVCAR-5 ovarian, in the experiment on RPMI-8226 leukemia, with SW-620 colon and in the experiment on UO-31 renal was greater than 100 µM in each case.

In the case of `CCC(CO)Nc1nc(NCc2ccccc2)c2ncn(C(C)C)c2n1` (stereo not given), the TGI in the experiment on CCRF-CEM leukemia is greater than 86.8 µM; in the experiment on HL-60(TB) leukemia it was greater than 70.5 µM; in the experiment with HT29 colon it was 52.5 µM; in the experiment with K-562 leukemia, greater than 100 µM; in the experiment with LOX IMVI melanoma, greater than 100 µM; in the experiment with MDA-MB-231 breast it was greater than 94.5 µM. The TGI in the experiment on OVCAR-5 ovarian is greater than 69.1 µM; with RPMI-8226 leukemia, greater than 100 µM; with SW-620 colon it was greater than 79 µM; in the experiment on UO-31 renal it was 40.7 µM.

In the case of `C=C1C(OC2O[C@@H]3O[C@@]4(C)CC[C@H]5[C@H](C)CC[C@@H](C2=C)[C@@]35O4)O[C@@H]2O[C@@]3(C)CC[C@H]4[C@H](C)CC[C@@H]1[C@@]24O3` (stereo not given in full), the TGI in the experiment on CCRF-CEM leukemia, in the experiment with HL-60(TB) leukemia, in the experiment on HT29 colon, in the experiment with K-562 leukemia, in the experiment with LOX IMVI melanoma and in the experiment with MDA-MB-231 breast was greater than 50 µM each time. The TGI in the experiment on OVCAR-5 ovarian, with RPMI-8226 leukemia, in the experiment on SW-620 colon and in the experiment on UO-31 renal was greater than 50 µM in each case.

`CS(=O)(=O)Nc1ccc2c(c1)N(S(C)(=O)=O)CC2CCl` (stereo not given): the TGI in the experiment on CCRF-CEM leukemia, in the experiment with HL-60(TB) leukemia, with HT29 colon, in the experiment on K-562 leukemia, with LOX IMVI melanoma and in the experiment with MDA-MB-231 breast was greater than 100 µM in each case. In addition, the TGI in the experiment on OVCAR-5 ovarian, with RPMI-8226 leukemia, in the experiment with SW-620 colon and in the experiment on UO-31 renal was greater than 100 µM throughout.

With `O=c1nc2c(c(-c3ccc(Br)cc3)[nH]1)COC/C2=C\c1ccc(Br)cc1`, the TGI in the experiment with CCRF-CEM leukemia, with HL-60(TB) leukemia, in the experiment on HT29 colon, with K-562 leukemia, with LOX IMVI melanoma and in the experiment on MDA-MB-231 breast was greater than 50 µM each time. Further, the TGI with OVCAR-5 ovarian, in the experiment with RPMI-8226 leukemia, in the experiment on SW-620 colon and in the experiment with UO-31 renal was greater than 50 µM each time.

`O=c1[nH]c2nc3ccccc3nc2[nH]c1=O`: the TGI with CCRF-CEM leukemia, in the experiment on HL-60(TB) leukemia, in the experiment with HT29 colon, with K-562 leukemia, in the experiment on LOX IMVI melanoma and in the experiment with MDA-MB-231 breast was greater than 100 µM in each case. For the same compound, the TGI in the experiment on OVCAR-5 ovarian, in the experiment on RPMI-8226 leukemia, with SW-620 colon and in the experiment on UO-31 renal was greater than 100 µM each time.
